Source: the Deep4Chem optical property database
One block for each compound: values may come before it.

Test: solvent given as SMILES

SMILES: CC(C)(C)c1ccc2c(c1)c1cc(C(C)(C)C)ccc1n2-c1cc(C(=O)c2ccccn2)cc(-n2c3ccc(C(C)(C)C)cc3c3cc(C(C)(C)C)ccc32)c1
absorption maximum (in Cc1ccccc1): 394 nm

SMILES: CC1=CC(C)=[N+]2C1=C(C1=C(C)C3=C(C)c4c(C)cc(C)n4[B-](F)(F)[N+]3=C1C)c1c(C)cc(C)n1[B-]2(F)F
absorption maximum (in ClC(Cl)Cl): 516 nm

SMILES: Cc1ccc(-c2cc(-c3ccccc3)c(C#N)c(=S)[nH]2)cc1
absorption maximum (in C1CCCCC1): 488 nm | absorption maximum (in C1COCCO1): 442 nm | absorption maximum (in CC#N): 430 nm | absorption maximum (in CCOCC): 440 nm | absorption maximum (in CN(C)C=O): 438 nm | absorption maximum (in ClC(Cl)(Cl)Cl): 446 nm

SMILES: CC(=O)Nc1ccccc1C(=O)OC1CC(C)CCC1C(C)C (stereo not drawn)
absorption maximum (in C1CCCCC1): 315 nm | absorption maximum (in CC#N): 310 nm | absorption maximum (in CCO): 310 nm | absorption maximum (in CO): 307 nm | absorption maximum (in Cc1ccccc1): 313 nm | absorption maximum (in ClC(Cl)Cl): 312 nm | absorption maximum (in ClCCl): 310 nm

SMILES: N#Cc1nnn(-c2ccnc3cc(Cl)ccc23)c1N
absorption maximum (in C1CCCCC1): 326.01 nm | absorption maximum (in C1CCOC1): 364.05 nm | absorption maximum (in C1COCCO1): 365.68 nm | absorption maximum (in CC#N): 381.45 nm | absorption maximum (in CCOC(C)=O): 364.01 nm | absorption maximum (in CN(C)C=O): 376.7 nm | absorption maximum (in CO): 386.62 nm | absorption maximum (in CS(C)=O): 368.79 nm | absorption maximum (in ClC(Cl)Cl): 385 nm

SMILES: Cc1c(C2=[N+]3C(=Cc4c(C)c5ccccc5n4[B-]3(F)F)c3ccccc32)[nH]c2ccccc12
absorption maximum (in C1CCOC1): 608 nm | absorption maximum (in CC#N): 591 nm | absorption maximum (in CCCCCC): 623 nm | absorption maximum (in CO): 598 nm | absorption maximum (in Cc1ccccc1): 625 nm | absorption maximum (in ClCCl): 611 nm

SMILES: Cc1cc(C)c(B(c2c(C)cc(C)cc2C)c2ccc3ccc4cccc5ccc2c3c45)c(C)c1
absorption maximum (in Cc1ccccc1): 399 nm

SMILES: COC(=O)C(NC(=O)OC(C)(C)C)c1ccc2oc(-c3ccc(C#N)cc3)nc2c1 (stereo not drawn)
absorption maximum (in CC1CCCCC1): 337 nm | absorption maximum (in CC#N): 333 nm | absorption maximum (in CO): 317 nm

SMILES: FC(F)(F)c1ccc(-c2nnc(-c3cc(-c4nnc(-c5ccc(C(F)(F)F)cc5)o4)c(-n4c5ccccc5c5ccccc54)cc3-n3c4ccccc4c4ccccc43)o2)cc1
absorption maximum (in Cc1ccccc1): 376 nm

SMILES: c1csc(-c2ccc(-c3cccs3)c3nsnc23)c1
absorption maximum (in ClC(Cl)Cl): 445 nm

SMILES: CC(C)(C)c1ccc2c(c1)c1cc(C(C)(C)C)cc3c1n2-c1cc(-c2ccc(F)cc2)cc2c1B3c1cc(C(C)(C)C)cc3c4cc(C(C)(C)C)ccc4n-2c13
absorption maximum (in Cc1ccccc1): 469.92 nm

SMILES: COc1cc(/C=C2/SC(=O)NC2=O)cc(OC)c1O
absorption maximum (in C1CCCCC1): 354 nm | absorption maximum (in C1COCCO1): 367 nm | absorption maximum (in CC#N): 362 nm | absorption maximum (in CN(C)C=O): 341 nm | absorption maximum (in CO): 359 nm | absorption maximum (in O): 358 nm | absorption maximum (in OCC(O)CO): 364 nm | absorption maximum (in OCCO): 370 nm

SMILES: CC(C)(C)c1ccc2c(c1)[nH]c1c3[nH]c4cc(C(C)(C)C)ccc4c3c3nsnc3c21
absorption maximum (in CN(C)C=O): 412 nm | absorption maximum (in Cc1ccccc1): 406 nm | absorption maximum (in ClCCl): 411 nm

SMILES: Cc1c(C)c(-c2cccnc2)c(C)c(C)c1B(c1c(C)c(C)c(-c2cccnc2)c(C)c1C)c1c(C)c(C)c(-c2cccnc2)c(C)c1C
absorption maximum (in ClCCl): 330 nm

SMILES: CC(C)(C)c1ccc2c(c1)c1cc(C(C)(C)C)ccc1n2-c1cc(N2c3ccccc3C(c3ccccc3)(c3ccccc3)c3ccccc32)cc(-n2c3ccc(C(C)(C)C)cc3c3cc(C(C)(C)C)ccc32)c1C#N
absorption maximum (in Cc1ccccc1): 378 nm

SMILES: CC(C)(C)c1ccc2c(c1)c1cc(C(C)(C)C)ccc1n2-c1ccc(C(=O)c2ccc(-n3c4ccc(C(C)(C)C)cc4c4cc(C(C)(C)C)ccc43)nc2)cn1
absorption maximum (in C1CCOC1): 377.31 nm | absorption maximum (in Cc1ccccc1): 383.97 nm | absorption maximum (in ClCCl): 382.72 nm

SMILES: CCN(CC)c1ccc2n1[B-](F)(F)[N+]1=CC(/C=C/C(=O)OC(C)(C)C)=CC1=C2c1c(C)cc(C)cc1C
absorption maximum (in ClCCl): 478 nm

SMILES: COC(=O)C(Cc1ccc2oc(-c3ccncc3)nc2c1)NC(=O)OC(C)(C)C (stereo not drawn)
absorption maximum (in CC1CCCCC1): 307.12 nm | absorption maximum (in CC#N): 302.86 nm | absorption maximum (in CO): 306.08 nm

SMILES: C[C@]12SC(=O)C=C1c1nc(-c3ccccc3O)[nH]c1C1=CC(=O)S[C@@]12C
absorption maximum (in CC#N): 455 nm

SMILES: COc1ccc(-c2csc(/C(C#N)=C\Nc3ccc(C#N)cc3)n2)cc1
absorption maximum (in CC#N): 376 nm | absorption maximum (in CCO): 378 nm | absorption maximum (in CN(C)C=O): 380 nm | absorption maximum (in Cc1ccccc1): 381 nm | absorption maximum (in ClCCl): 379 nm

SMILES: O=C(O)CCCc1cc(C#Cc2ccccc2)c2ccc3c(C#Cc4ccccc4)cc(C#Cc4ccccc4)c4ccc1c2c34
absorption maximum (in CS(C)=O): 451 nm | absorption maximum (in ClC(Cl)(Cl)Cl): 445 nm

SMILES: CCN1\C(=C/C=C/C=C/C2=[N+](CC)c3ccc4cc(Br)ccc4c3C2(C)C)C(C)(C)c2c1ccc1cc(Br)ccc21
absorption maximum (in C1CCOC1): 683 nm | absorption maximum (in CC#N): 680 nm | absorption maximum (in CC(C)=O): 682 nm | absorption maximum (in CCO): 685 nm | absorption maximum (in CN(C)C=O): 686 nm | absorption maximum (in CO): 681 nm | absorption maximum (in CS(C)=O): 689 nm | absorption maximum (in ClCCl): 697 nm

SMILES: COC1(OC)C2(Cl)c3nc4cc(-c5cccs5)ccc4nc3C1(Cl)C1C[C@H]3[C@@H](CC12)C1(Cl)c2nc4ccc(-c5cccs5)cc4nc2C3(Cl)C1(OC)OC (stereo partly drawn)
absorption maximum (in CC#N): 366 nm | absorption maximum (in CCCCCC): 358 nm | absorption maximum (in CCOC(C)=O): 362 nm | absorption maximum (in CO): 368 nm | absorption maximum (in Cc1ccccc1): 362 nm | absorption maximum (in ClC(Cl)Cl): 366 nm | absorption maximum (in ClCCl): 367 nm

The remaining lines, values ahead:

absorption maximum (in CC1CCCCC1): 323 nm | absorption maximum (in CC#N): 306 nm | absorption maximum (in CO): 306 nm
SMILES: COC(=O)C(NC(=O)OC(C)(C)C)c1ccc2oc(-c3ccc(OC(=O)c4ccccc4)cc3OC(=O)c3ccccc3)nc2c1 (stereo not drawn)

absorption maximum (in C1CCOC1): 340 nm
SMILES: O=C(c1ccc(C(=C(c2ccccc2)c2ccccc2)c2ccccc2)cc1)c1ccc(-n2c3ccccc3c3ccccc32)cc1

absorption maximum (in C1CCOC1): 425 nm
SMILES: COc1ccc2c(c1)c1ccc3cccc4c5cccc6oc(=O)c2c(c65)c1c34

absorption maximum (in CC#N): 520 nm | absorption maximum (in ClCCl): 518 nm
SMILES: CCN(CC)c1ccc(/N=N/c2nc3ccc(Br)cc3s2)cc1

absorption maximum (in ClCCl): 324 nm
SMILES: C[SiH]1c2ccccc2-c2cc3c(cc21)-c1ccccc1[SiH]3C (stereo not drawn)

absorption maximum (in ClC(Cl)Cl): 370 nm
SMILES: CCCCC1(c2ccccc2)Nc2c(-c3ccc(N(c4ccccc4)c4ccccc4)cc3)ccc(-c3ccc(N(c4ccccc4)c4ccccc4)cc3)c2N=C1c1ccccc1 (stereo not drawn)

absorption maximum (in ClCCl): 447 nm
SMILES: CC(C)c1cccc(C(C)C)c1N1C(c2ccccc2)=Cc2ccc3ccccc3[n+]2[B-]1(F)F

absorption maximum (in CN(C)C=O): 525 nm
SMILES: CCCCCCCCCCCCCCCCCCN1C(=O)c2ccc3c4ccc5c6c(ccc(c7ccc(c2c37)C1=O)c64)C(=O)N(CCCCCCCCCCCCCCCCCC)C5=O

absorption maximum (in ClCCl): 392 nm
SMILES: CCCCCCNC(=O)c1sc(-c2ccc(-c3cc(-c4ccc(C(C)(C)C)cc4)c(C(=O)NCCCCCC)s3)s2)cc1-c1ccc(C(C)(C)C)cc1

absorption maximum (in ClC(Cl)Cl): 506 nm
SMILES: CC1=CC(C)=[N+]2C1=C(c1ccc(I)cc1)c1c(C)cc(C)n1[B-]21Oc2ccc3ccccc3c2-c2c(ccc3ccccc23)O1

absorption maximum (in C1CCOC1): 400 nm
SMILES: CC(C)(C)/C=C1\C=C(c2ccccc2)C=C1c1ccccc1

absorption maximum (in ClC(Cl)Cl): 366 nm
SMILES: COc1ccc(-c2ccc(-c3ccc(OC)cc3)c3nc(-c4ccccc4)c(-c4ccccc4)nc23)cc1

absorption maximum (in CC#N): 348 nm | absorption maximum (in CCCCCCCCCCCCCCCC): 337 nm | absorption maximum (in CO): 356 nm | absorption maximum (in ClC(Cl)Cl): 344 nm | absorption maximum (in c1ccccc1): 343 nm
SMILES: CC(C)(C)C1Nc2ccccc2C(=O)N1c1ccccc1 (stereo not drawn)

absorption maximum (in C1CCCCC1): 350 nm | absorption maximum (in CO): 350 nm
SMILES: COc1ccc(/C=C/c2nc3ccccc3s2)cc1

absorption maximum (in c1ccccc1): 402 nm
SMILES: Nc1ccc2nc(-c3ccccc3)c(=O)oc2c1

absorption maximum (in O): 458 nm
SMILES: N#Cc1c(N2CCCCC2)cc(-c2cccs2)c2c1-c1cccc3cccc-2c13

absorption maximum (in ClC(Cl)Cl): 328 nm
SMILES: CCCCn1c2ccccc2c2ccc3c4cc(-c5cccc(F)c5)ccc4n(CCCC)c3c21

absorption maximum (in CC#N): 401 nm | absorption maximum (in CO): 402 nm
SMILES: Cc1ccc2sc3cc(CCC(=O)O)ccc3c(=O)c2c1

absorption maximum (in C1CCOC1): 362 nm | absorption maximum (in ClCCl): 365 nm
SMILES: COc1ccc(C2=Cc3ccccc3P2(=O)c2ccccc2)cc1 (stereo not drawn)

absorption maximum (in ClCCl): 630 nm
SMILES: CC(C)CCCC(C)CCN1C(=O)c2ccc3c(-c4ccccc4)c4c5ccc6c7c(ccc(c(-c8ccccc8)c4c4ccc(c2c34)C1=O)c75)C(=O)N(CCC(C)CCCC(C)C)C6=O (stereo not drawn)

absorption maximum (in C1CCCCC1): 256 nm
SMILES: CC(C)(C)c1ccc(-c2ccc(C(C)(C)C)cc2)cc1

absorption maximum (in ClC(Cl)Cl): 767 nm
SMILES: CC(C)(C)c1ccc(C2=c3sc(-c4ccc(C(C)(C)C)cc4)cc3=[N+]3C2=Nc2c(-c4ccc(C(C)(C)C)cc4)c4sc(-c5ccc(C(C)(C)C)cc5)cc4n2[B-]3(F)F)cc1

absorption maximum (in C1CCCCC1): 598.5 nm | absorption maximum (in CCOC(C)=O): 601.5 nm
SMILES: CC1=[N+]2C(=C(c3ccc(Br)cc3)c3ccc(C)n3[B-]2(F)F)C=C1c1cc2n(c1)[B-](F)(F)[N+]1=CC=CC1=C2c1c(C)cc(C)cc1C

absorption maximum (in ClCCl): 315.85 nm
SMILES: C=CCN(CC=C)c1ccc(-c2cc(-c3ccc(N(CC=C)CC=C)cc3)cc(-c3ccc(N(CC=C)CC=C)cc3)c2)cc1

absorption maximum (in ClCCl): 386 nm
SMILES: O=C1c2cccc3c(C#CC#Cc4ccc5c6c(cccc46)C(=O)N(c4ccccc4)C5=O)ccc(c23)C(=O)N1c1ccccc1

absorption maximum (in ClCCl): 368 nm
SMILES: C[Si]1(C)O[Si](C)(C)c2cc3c(-c4ccccc4)c4ccccc4nc3cc21

absorption maximum (in ClCCl): 370 nm
SMILES: Cc1ccc2c(c1)C(C)(C)c1cc(C)ccc1N2c1ccc2c(c1)C(C)(C)c1cc(N3c4ccc(C)cc4C(C)(C)c4cc(C)ccc43)ccc1S2(=O)=O

absorption maximum (in ClC(Cl)Cl): 443 nm
SMILES: CN(C)c1ccc(-c2ccc(-c3ccc(N(C)C)cc3)c3nc(-c4ccccc4)c(-c4ccccc4)nc23)cc1

absorption maximum (in ClCCl): 530 nm
SMILES: O=[N+]([O-])c1ccc2c(ccc3[n+]2[B-](F)(F)n2c-3cc3c4ccccc4c4ccccc4c32)c1

absorption maximum (in ClCCl): 377 nm
SMILES: c1ccc2cc(-c3c4ccccc4c(-c4ccc(-n5c6ccccc6c6ccccc65)cc4)c4ccccc34)ccc2c1

absorption maximum (in CC#N): 418 nm | absorption maximum (in ClCCl): 420 nm
SMILES: COC(=O)c1cc(=O)n(C)c2cc(-c3ccc(N4CCN(C)CC4)cc3)sc12
